Data: patent US10092644B2, “Use of fluorinated cyclic dinucleotides as oral vaccine adjuvants” (BROCK UNIVERSITY, priority 2013, dated 2018)

Columns and labels:
Listeria flagellin = assay: Oral immunization with Listeria flagellin admixed with adjuvant; ELISA for flagellin-specific antibodies; type: in vivo, BALB/c mice; settings: day 35
H. pylori SS1 = assay: Mouse model of H. pylori gastric colonization after oral immunization; type: in vivo, mice
[1] = tested on: splenocytes stimulated by HPCE; settings: mouse, in vivo, po
[2] = tested on: recombinant PsaA protein of S. pneumoniae; assay: Intranasal immunization of mice with PsaA admixed with adjuvant; ELISA for PsaA-specific IgA and IgG isotypes; type: in vivo, BALB/c mice
Description: Mice. Six to eight-week-old female BALB/c or C57BL/6 mice were purchased from Charles Rivers Laboratories (St. Constant, Quebec). The animals were housed under specific-pathogen-free conditions in a federally licensed small animal containment level 2 facility, and given free access to sterile water and certified mouse chow. The animals were maintained and used in accordance with the recommendations of the Canadian Council on Animal Care Guide to the Care and Use of Experimental Animals, and the experimental procedures were approved by the institutional animal care committee.
(§1) Intranasal or oral immunization in mice. For intranasal immunization, mice were lightly anesthetized under isofluorane. On day 0, 14 and 21, groups of mice (n=5) were inoculated with 50 μl of various vaccine preparations or controls as detailed in Examples 1-5. For oral immunization, various vaccine preparations or controls in 0.2 ml volume were administered by gavage via an 18-gauge feeding needle.
At day 28, blood and mucosal samples (fecal pellets or/and vaginal wash) were collected as described elsewhere (Patel G B, Zhou H, Ponce A, Chen W (2007). Mucosal and systemic immune responses by intranasal immunization using archaeal lipid-adjuvanted vaccines. Vaccine 25: 8622-8636.). In some experiments, nasal wash samples were also collected at the end of experiment. For both the vaginal and nasal wash, the volume of the lavage fluid recovered from each mouse was recorded. Since the recovery of lavage volumes among different mice in our study were very similar (about 90%), the small variation among individual samples was not adjusted. All samples were stored at −20° C. until assay.
Vaginal wash samples were collected by slowly injecting and withdrawing (3-4 times) 50 μl PBS (pH 7.2) into the vagina of conscious mice, using a P100 pipette. The volume of the vaginal lavage fluid recovered from each mouse was recorded.
Enzyme-linked immunosorbent assay (ELISA) for PsaA-specific IgA and IgG isotypes. Levels of PsaA-specific antibodies in serum and mucosal samples were measured by an enzyme-linked immunosorbent assay (ELISA) modified from a previously described procedure (Yan H, Kuo Lee R, Tram K, Qiu H, Zhang J, Patel G B, Chen W. 3′,5′-Cyclic diguanylic acid elicits mucosal immunity against bacterial infection. Biochemical and Biophysical Research Communications, 2009; 387(3):581-4.). Briefly, 96-well Immunolon 2^R microplates (Thermo Electron Corporation, Milford, Mass.) were coated with 0.5 μg PsaA/well in 100 μl of 0.015 M sodium carbonate and 0.035 M sodium bicarbonate buffer (pH 9.6) at 4° C. overnight. All the subsequent incubations were carried out at room temperature. The wells were blocked by incubation with 5% bovine serum in PBS for 1 h, and then rinsed three times with PBS-0.05% Tween 20. Duplicates of 100 μl pre-diluted samples were added to the wells. Sample dilutions were as follows: 1:2 for fecal extracts and nasal washes, 1:2000 for serum IgG1, 1:500 for serum IgG2a and 1:50 for serum IgA. After the plates were incubated for 3 h, alkaline phosphatase-conjugated goat antibodies specific for mouse IgA, IgG1 and IgG2a (all from Caltag Laboratories, Burlingame, Calif.) were added and incubated for 1 h. Color reactions were developed by the addition of p-nitrophenyl phosphate (pNPP) substrate (KPL, Inc., Gaithersburg, Md.), and optical density was measured at 405 nm with an automated ELISA plate reader (Multiskan Ascent, Thermo Labsystems, Vantaa, Finland). Pooled samples collected from mice that had been intranasally immunized with the PsaA+CT or from the naïve mice were used as positive or negative controls respectively.
To determine if 2′-F-c-di-GMP can elicit mucosal immune responses to microbial (bacterial and viral) antigens, groups of BALB/c mice were intranasally (i.n.) immunized with 2 μg recombinant PsaA protein of S. pneumoniae admixed with 2.5 μg 2′-F-c-di-GMP, 2.5 μg c-di-GMP, or 10 μg c-di-GMP at day 0, 14 and 21. […]

[3] = tested on: H. pylori cell-free sonicate extract (HPCE); set-up: species or system C57BL/6 mice; settings: mouse, in vivo, po
C. difficile flagellin = assay: Oral immunization with C. difficile flagellin admixed with adjuvant; ELISA for flagellin-specific antibodies; type: in vivo, BALB/c mice; settings: day 35
S. pneumoniae = assay: Mouse S. pneumoniae nasopharyngeal colonization model after intranasal immunization; type: in vivo, mice
Procedure: as §1
Intranasal challenge of mice with S. pneumoniae. Fresh inocula were prepared for each experiment from a frozen stock of S. pneumoniae (type 14). […] The actual inoculum concentrations were determined by plating 10-fold serial dilutions on chocolate agar. Inoculated mice were sacrificed 3 days later and the nasal cavity was lavaged with 0.5 ml lavage fluid and aliquots (100 μl) of 10-fold serial dilutions of the lavage fluids were cultured, in duplicates, on chocolate agar plates to quantify the number of viable organisms.
Next, it was determined if the mucosal immune responses induced by the 2′-F-c-di-GMP adjuvanted vaccine are protective against mucosal infections in the well-established mouse S. pneumoniae colonization model. […] Mice were sacrificed 3 days after challenge, and the nasopharyngeal tract was lavaged and bacterial numbers in the nasal wash were determined.

[4] = tested on: pneumococcal surface adhesion A (Psa); settings: mice, intranasally, Psa together with c-di-GMP (Yan et al. 2009); cited from earlier work
[5] = oral 50 μg Listeria flagellin + 75 μg adjuvant
[6] = i.n. 2 μg PsaA admixed with 2.5 μg adjuvant at day 0, 14 and 21, samples day 28, FIG. 1
[7] = i.n. with 2 μg PsaA, comparator 2.5 μg or 10 μg c-di-GMP
[8] = oral 30 μg C. difficile flagellin + 75 μg adjuvant

2′-F-c-di-GMP
IgG1 response in the serum compared with sham-immunized mice (Listeria flagellin; [5]): substantially higher
IgG2a response in the serum compared with sham-immunized mice (Listeria flagellin; [5]): substantially higher
antigen-specific IgA response in feces compared with sham-immunized mice (Listeria flagellin; [5]): substantially higher
Listeria flagellin-specific IgA in feces (Listeria flagellin; oral 50 μg Listeria flagellin admixed with 75 μg adjuvant day 0, 14, 21, FIG. 6): small amount
magnitude of reduction of H. pylori colonization relative to HPCE adjuvanted with CT (H. pylori SS1; HPCE+2′-F-c-di-GMP vs HPCE+CT, oral): comparable
bacterial burdens in the gastric mucosa compared to sham (PBS)-immunized mice (H. pylori SS1; both low or high doses of HPCE + 2′-F-c-di-GMP, oral): significantly reduced bacterial burdens
gastric colonization of H. pylori compared to sham-immunized mice (H. pylori SS1; oral immunization, oral challenge 10^8 CFU H. pylori SS1 three times from day 35, stomach 6 weeks after first challenge, P<0.05 for adjuvanted group, FIG. 5): significantly reduced colonization
IFN-γ produced by splenocytes compared to cells from CT-immunized mice [1]: even higher
IFN-γ produced by splenocytes compared to sham-immunized mice [1]: substantially higher
IL-2 produced by splenocytes compared to sham-immunized mice [1]: substantially higher
IL-17 produced by splenocytes compared to sham-immunized mice [1]: substantially higher
PsaA-specific IgA in feces [2, 6]: high level
PsaA-specific IgA in nasal wash [2, 6]: high level
PsaA-specific IgA in serum [2, 6]: high level
PsaA-specific serum IgG1 level [2, 6]: high level
PsaA-specific serum IgG2a level [2, 6]: high level
IgG2a response in the serum compared to parental c-di-GMP [2, 7]: stronger
antigen-specific IgA response in feces compared to parental c-di-GMP [2, 7]: stronger
antigen-specific IgA response in vaginal washings compared to parental c-di-GMP [2, 7]: stronger
IgG2a response in the serum compared with sham-immunized mice [3]: substantially higher
antigen-specific IgA level in feces [3]: substantial amount
antigen-specific IgA level in serum [3]: substantial amount
antigen-specific IgA response in feces compared with sham-immunized mice [3]: substantially higher
antigen-specific serum IgG1 level [3]: substantial amount
antigen-specific serum IgG2a level [3]: substantial amount
IgG1 response in the serum compared with sham-immunized mice (C. difficile flagellin; [8]): substantially higher
IgG2a response in the serum compared with sham-immunized mice (C. difficile flagellin; [8]): substantially higher
antigen-specific IgA response in feces compared with sham-immunized mice (C. difficile flagellin; [8]): substantially higher
C. difficile flagellin-specific IgA in feces (C. difficile flagellin; oral 30 μg C. difficile flagellin admixed with 75 μg adjuvant day 0, 14, 21, FIG. 6): substantial amount
magnitude of reduction of S. pneumoniae colonization relative to PsaA+CT immunized mice (S. pneumoniae; PsaA+2′-F-c-di-GMP i.n., PsaA+CT data from Yan et al. 2009): comparable
nasopharyngeal colonization of S. pneumoniae compared to sham-immunized mice (S. pneumoniae; i.n. immunization, i.n. challenge 4.55×10^6 CFU at day 35, nasal wash bacterial numbers 3 days after challenge, P<0.05 for adjuvanted group, FIG. 2): significantly reduced colonization

Nc1nc2c(ncn2C2OC3COP(=O)(O)OC4C(COP(=O)(O)OC3C2O)OC(n2cnc3c(=O)[nH]c(N)nc32)C4O)c(=O)[nH]1 (centres unmarked) [c-di-GMP, 3′,5′-cyclic diguanylic acid]
antigen specific antibody response [4]: enhanced
